Results from ChEMBL document CHEMBL1201862, “PubChem BioAssay data set” (2004).
“And” between values parts separate entries of the source, which are not always exact repeats. Equal values may be shown once.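 Five compound concentrations were applied to cells in 96-well plates for 48 hours; endpoints were derived by simple linear interpolation of the resulting dose-response curve. GI50 = concentration required for 50% inhibition of growth.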 The source made the active and inactive calls. Cut-off read from the data, not from the text of the source: active = GI50 up to about 1.1 µM and inactive = higher. Square brackets hold non-standard residues; d marks the D form. Peptide text beside a SMILES is read from it. * marks the point of attachment. ξ: configuration not given here. NMeN = CN[C@@H](CC(N)=O)C(=O)O; NMeV = CN[C@H](C(=O)O)C(C)C; ξNMeV = CNC(C(=O)O)C(C)C; Boc = CC(C)(C)OC(=O)*; ξNMeA = CNC(C)C(=O)O

Key:
Experiment in all cases: DTP human tumour cell line panel, 48 h
NCI-H226 = test system: NCI-H226
IGROV-1 = test system: IGROV-1
RXF 393 = test system: RXF 393
MDA-MB-435 = test system: MDA-MB-435
SF-539 = test system: SF-539
OVCAR-8 = test system: OVCAR-8
MOLT-4 = test system: MOLT-4
MCF7 = test system: MCF7
NCI-H460 = test system: NCI-H460
OVCAR-5 = test system: OVCAR-5
SK-MEL-5 = test system: SK-MEL-5
U-251 = test system: U-251
A498 = test system: A498
HL-60 = test system: HL-60
SN12C = test system: SN12C
Hs-578T = test system: Hs-578T
SW-620 = test system: SW-620
A549 = test system: A549
NCI/ADR-RES = test system: NCI/ADR-RES
T47D = test system: T47D

Row | Compound | GI50 (NCI-H226) | GI50 (IGROV-1) | GI50 (RXF 393) | GI50 (MDA-MB-435) | GI50 (SF-539) | GI50 (OVCAR-8) | GI50 (MOLT-4) | GI50 (MCF7) | GI50 (NCI-H460) | GI50 (OVCAR-5) | GI50 (SK-MEL-5) | GI50 (U-251) | GI50 (A498) | GI50 (HL-60) | GI50 (SN12C) | GI50 (Hs-578T) | GI50 (SW-620) | GI50 (A549) | GI50 (NCI/ADR-RES) | GI50 (T47D)
1 | Cc1cn(C2CC(N(O)Cc3ccccc3)C(CO[Si](C)(C)C(C)(C)C)O2)c(=O)[nH]c1=O (centres undefined) | 18.6 µM (inactive) and 18.8 µM (inactive) | 15.7 µM (inactive) and 25.5 µM (inactive) | 13.6 µM (inactive) | 17.9 µM (inactive) and 18 µM (inactive) | 15.5 µM (inactive) and 18.1 µM (inactive) | 17.8 µM (inactive) and 25.7 µM (inactive) | 40.2 µM (inactive) and 57.3 µM (inactive) | 19.6 µM (inactive) and 30.9 µM (inactive) | 17.9 µM (inactive) and 17.7 µM (inactive) | 18.6 µM (inactive) and 19.7 µM (inactive) | 16.6 µM (inactive) and 18.8 µM (inactive) | 15.1 µM (inactive) and 19.6 µM (inactive) | 13.8 µM (inactive) and 26.7 µM (inactive) | 29.8 µM (inactive) and 36.5 µM (inactive) | 16 µM (inactive) and 16.1 µM (inactive) | 18.4 µM (inactive) and 16.5 µM (inactive) | 19.4 µM (inactive) and 25.8 µM (inactive) | – | – | –
2 | CC1CC(c2ccc([N+](=O)[O-])cc2)=Nc2ccccc2S1 (centres undefined) | 23.2 µM (inactive) | 18 µM (inactive) | 17.5 µM (inactive) | – | 16.9 µM (inactive) | 25.9 µM (inactive) | 18.1 µM (inactive) | – | 27.1 µM (inactive) | 23.9 µM (inactive) | 21.5 µM (inactive) | 15.2 µM (inactive) | 19 µM (inactive) | 7.45 µM (inactive) | 18.2 µM (inactive) | – | 15.6 µM (inactive) | 21.9 µM (inactive) | – | –
3 | N#Cc1cccc(/C=N/C23CC4CC(CC(C4)C2)C3)c1 | > 100 µM (inactive) | > 100 µM (inactive) | > 100 µM (inactive) | – | > 100 µM (inactive) | > 100 µM (inactive) | 99.1 µM (inactive) | – | > 100 µM (inactive) | > 100 µM (inactive) | > 10 µM (inactive) | > 100 µM (inactive) | > 100 µM (inactive) | 21.3 µM (inactive) | > 100 µM (inactive) | – | > 100 µM (inactive) | > 100 µM (inactive) | – | –
4 | CC(C)(C)C1CCC2c3c([nH]c4ccccc34)C3C(=O)N(c4ccc(C#N)cc4)C(=O)C3C2C1 (centres undefined) | 20 µM (inactive) | 16.4 µM (inactive) | 3.21 µM (inactive) | 26.3 µM (inactive) | 18.7 µM (inactive) | 14.5 µM (inactive) | 0.678 µM (active) | 29.5 µM (inactive) | 3.81 µM (inactive) | 20.7 µM (inactive) | 12.9 µM (inactive) | 15.8 µM (inactive) | 13.7 µM (inactive) | 3.42 µM (inactive) | 9.59 µM (inactive) | 11.2 µM (inactive) | 8.13 µM (inactive) | 8.43 µM (inactive) | 17.6 µM (inactive) | –
5 | COc1cc(/C=C2\CCC(C)(CN(C)C)C2=O)cc(OC)c1OC (centres undefined) | > 100 µM (inactive) | > 100 µM (inactive) | > 100 µM (inactive) | – | > 100 µM (inactive) | > 100 µM (inactive) | > 83.6 µM (inactive) | – | > 100 µM (inactive) | > 100 µM (inactive) | > 93.3 µM (inactive) | > 100 µM (inactive) | > 100 µM (inactive) | 1.57 µM (inactive) | > 100 µM (inactive) | – | > 100 µM (inactive) | > 100 µM (inactive) | – | –
6 | Cc1ccc(NS(=O)(=O)c2cc(C(C)(C)C)ccc2OCCOCCOCCOc2ccc(C(C)(C)C)cc2S(=O)(=O)Nc2ccc(C)cc2)cc1 | > 100 µM (inactive) | > 100 µM (inactive) | > 100 µM (inactive) | – | > 100 µM (inactive) | > 100 µM (inactive) | > 100 µM (inactive) | – | > 100 µM (inactive) | > 100 µM (inactive) | > 100 µM (inactive) | > 100 µM (inactive) | > 100 µM (inactive) | > 100 µM (inactive) | > 100 µM (inactive) | – | > 100 µM (inactive) | > 100 µM (inactive) | – | –
7 | CS(=O)(=O)c1ccc(C(=O)O[C@@H]2C(=O)N3CC[C@H]4OC(O)[C@@H]2[C@H]43)cc1 (some centres undefined) | > 100 µM (inactive) | – | > 100 µM (inactive) | > 100 µM (inactive) | > 100 µM (inactive) | > 100 µM (inactive) | > 100 µM (inactive) | > 100 µM (inactive) | > 100 µM (inactive) | > 100 µM (inactive) | > 100 µM (inactive) | > 100 µM (inactive) | > 100 µM (inactive) | – | – | – | > 100 µM (inactive) | > 100 µM (inactive) | > 100 µM (inactive) | > 100 µM (inactive)
8 | Cc1cc(NS(=O)(=O)c2ccc(NO)cc2)no1 | > 100 µM (inactive) | > 100 µM (inactive) | > 100 µM (inactive) | 19.5 µM (inactive) | 35.1 µM (inactive) | 41.1 µM (inactive) | 43 µM (inactive) | 22 µM (inactive) | > 100 µM (inactive) | > 100 µM (inactive) | > 100 µM (inactive) | – | > 100 µM (inactive) | > 100 µM (inactive) | 19.5 µM (inactive) | > 100 µM (inactive) | 29.2 µM (inactive) | > 100 µM (inactive) | 39.5 µM (inactive) | –
9 | CCCCCCCCCCCC(=O)OCC1OC(n2cc(F)c(=O)[nH]c2=O)C(N)C(O)C1O (centres undefined) | > 100 µM (inactive) | > 100 µM (inactive) | > 100 µM (inactive) | – | > 100 µM (inactive) | 73.5 µM (inactive) | 36.3 µM (inactive) | – | 78.9 µM (inactive) | 11.5 µM (inactive) | > 100 µM (inactive) | 79.1 µM (inactive) | > 100 µM (inactive) | 38.9 µM (inactive) | > 100 µM (inactive) | – | > 100 µM (inactive) | > 100 µM (inactive) | – | –
10 | CC(C)(C)C1CCC2(CC1)c1[nH]c3ccccc3c1C1(CCC(C(C)(C)C)CC1)c1[nH]c3ccccc3c12 (centres undefined) | > 100 µM (inactive) | > 100 µM (inactive) | > 100 µM (inactive) | – | > 100 µM (inactive) | > 100 µM (inactive) | > 100 µM (inactive) | – | > 100 µM (inactive) | > 100 µM (inactive) | > 100 µM (inactive) | 87.3 µM (inactive) | > 100 µM (inactive) | > 100 µM (inactive) | > 100 µM (inactive) | – | 39.4 µM (inactive) | > 100 µM (inactive) | – | –
11 | O=C1C2Cc3ccccc3CN2C(=O)N1CN1CCN(CN2C(=O)C3Cc4ccccc4CN3C2=O)CC1 (centres undefined) | > 100 µM (inactive) | > 100 µM (inactive) | > 100 µM (inactive) | – | > 100 µM (inactive) | > 100 µM (inactive) | > 100 µM (inactive) | – | > 100 µM (inactive) | > 100 µM (inactive) | > 100 µM (inactive) | > 100 µM (inactive) | > 100 µM (inactive) | > 100 µM (inactive) | > 100 µM (inactive) | – | > 100 µM (inactive) | > 100 µM (inactive) | – | –
12 | COC(=O)[C@@H](NC1(c2ccccc2)c2ccccc2-c2ccccc21)[C@H](OC(=O)[C@H]1CCCN1S(=O)(=O)c1ccccc1)C(=O)OC | > 100 µM (inactive) | > 100 µM (inactive) | > 100 µM (inactive) | > 100 µM (inactive) | > 100 µM (inactive) | > 100 µM (inactive) | > 100 µM (inactive) | > 100 µM (inactive) | > 100 µM (inactive) | > 100 µM (inactive) | > 100 µM (inactive) | > 100 µM (inactive) | > 100 µM (inactive) | > 100 µM (inactive) | > 100 µM (inactive) | – | > 100 µM (inactive) | > 100 µM (inactive) | > 100 µM (inactive) | > 100 µM (inactive)
13 | COc1ccc(N2C(=O)C(C#N)=C(SC)C(C#N)C2=O)cc1 (centres undefined) | > 100 µM (inactive) | > 100 µM (inactive) | > 100 µM (inactive) | > 100 µM (inactive) | > 100 µM (inactive) | > 100 µM (inactive) | > 100 µM (inactive) | > 100 µM (inactive) | > 100 µM (inactive) | > 100 µM (inactive) | > 100 µM (inactive) | > 100 µM (inactive) | > 100 µM (inactive) | – | > 100 µM (inactive) | 22.8 µM (inactive) | > 100 µM (inactive) | > 100 µM (inactive) | > 100 µM (inactive) | –
14 | COc1ccc([C@]23CCN(S(=O)(=O)c4ccc(C)cc4)[C@H]2[C@H](CO)C2(CC3)OCC(C)(C)CO2)cc1OC | > 100 µM (inactive) | > 100 µM (inactive) | 98.6 µM (inactive) | > 100 µM (inactive) | – | > 100 µM (inactive) | > 100 µM (inactive) | > 100 µM (inactive) | > 100 µM (inactive) | > 100 µM (inactive) | > 100 µM (inactive) | > 100 µM (inactive) | > 100 µM (inactive) | > 100 µM (inactive) | > 100 µM (inactive) | – | > 100 µM (inactive) | > 100 µM (inactive) | > 100 µM (inactive) | > 100 µM (inactive)
15 | COC(=O)C(C)N(C)C(=O)[C@H](CC(N)=O)N(C)C(=O)[C@@H]1CCCN1C(=O)[C@H](C(C)C)N(C)C(=O)C(C(C)C)N(C)C(=O)[C@@H](NC(=O)OC(C)(C)C)C(C)C (some centres undefined) (Boc-V[ξNMeV][NMeV]P[NMeN][ξNMeA]-OMe) | > 50 µM (inactive) | > 50 µM (inactive) | > 50 µM (inactive) | > 50 µM (inactive) | > 50 µM (inactive) | > 100 µM (inactive) | 9.93 µM (inactive) | > 50 µM (inactive) | > 50 µM (inactive) | > 50 µM (inactive) | 31.7 µM (inactive) | > 50 µM (inactive) | > 50 µM (inactive) | 15.1 µM (inactive) | > 50 µM (inactive) | – | > 50 µM (inactive) | 37.5 µM (inactive) | > 50 µM (inactive) | > 50 µM (inactive)
